From patent publication US20100273772A1, “Bisaryl Alkynylamides as Negative Allosteric Modulators of Metabotropic Glutamate Receptor 5 (MGLUR5)” (Wyeth LLC, priority 2009, published 2010)

What was measured:
rat mGluR5 receptor = target: T1, rat mGluR5 receptor (Rattus norvegicus, UniProt P31424); assay: [3H]-MPEP binding HEK-293 cell membranes expressing a rat mGluR5 receptor; conditions: displacement of 4 nM [3H]-MPEP, HEK-293 cell membranes expressing rat mGluR5, 60 minute at room temperature; read-out: mGluR5 Ligand Binding DR Ki
T1 construct: expressed in transfected cells; host or cells: HEK-293
T1 sequence (P31424 21-1203): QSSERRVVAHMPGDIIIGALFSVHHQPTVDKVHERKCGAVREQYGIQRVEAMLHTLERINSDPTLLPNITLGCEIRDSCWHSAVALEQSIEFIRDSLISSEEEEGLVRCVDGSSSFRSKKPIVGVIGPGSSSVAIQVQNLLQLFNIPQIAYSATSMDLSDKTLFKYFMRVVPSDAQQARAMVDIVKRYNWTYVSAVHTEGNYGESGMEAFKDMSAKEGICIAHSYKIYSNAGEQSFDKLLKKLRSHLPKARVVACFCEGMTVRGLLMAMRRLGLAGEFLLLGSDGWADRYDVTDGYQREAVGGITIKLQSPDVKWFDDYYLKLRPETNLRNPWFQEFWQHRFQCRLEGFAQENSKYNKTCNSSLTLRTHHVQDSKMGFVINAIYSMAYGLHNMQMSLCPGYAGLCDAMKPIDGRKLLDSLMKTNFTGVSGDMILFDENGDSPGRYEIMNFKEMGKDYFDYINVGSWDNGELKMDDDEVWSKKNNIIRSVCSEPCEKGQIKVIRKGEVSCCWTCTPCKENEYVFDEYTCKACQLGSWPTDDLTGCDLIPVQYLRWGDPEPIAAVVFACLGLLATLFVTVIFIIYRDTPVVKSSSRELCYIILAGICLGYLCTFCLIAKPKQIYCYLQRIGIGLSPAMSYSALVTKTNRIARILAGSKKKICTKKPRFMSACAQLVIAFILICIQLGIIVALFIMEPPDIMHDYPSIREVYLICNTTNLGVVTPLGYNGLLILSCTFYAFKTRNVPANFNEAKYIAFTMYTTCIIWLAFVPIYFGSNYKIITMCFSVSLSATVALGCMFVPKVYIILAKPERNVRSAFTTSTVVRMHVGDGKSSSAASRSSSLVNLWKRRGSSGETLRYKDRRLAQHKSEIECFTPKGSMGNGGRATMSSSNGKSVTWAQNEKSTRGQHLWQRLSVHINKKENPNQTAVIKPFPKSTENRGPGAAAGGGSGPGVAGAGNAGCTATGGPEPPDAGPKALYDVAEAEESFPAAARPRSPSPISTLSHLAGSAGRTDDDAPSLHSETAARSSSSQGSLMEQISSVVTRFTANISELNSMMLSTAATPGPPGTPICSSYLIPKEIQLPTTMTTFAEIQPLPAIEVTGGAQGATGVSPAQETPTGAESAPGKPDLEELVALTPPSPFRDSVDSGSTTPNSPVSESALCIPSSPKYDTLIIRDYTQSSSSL
Procedure: TITLE: [^3H]-MPEP binding HEK-293 cell membranes expressing a rat mGluR5 receptor. PURPOSE: To identify high affinity compounds at the rat mGluR5 receptor based on their ability to displace the mGluR5 negative allosteric modulator, MPEP.
mGluR5 expressing HEK-293 cells are scraped off the plate, transferred to centrifuge tubes, and washed twice by centrifugation (2000 rpm for 10 min., 4° C.) in buffer (50 mM Tris pH 7.5). The resulting pellets are aliquoted and placed at −80° C. On the day of assay, the cells are thawed on ice, and resuspended in buffer. The binding assay is performed in a 96 well microtiter plate in a total volume of 250 μL. Non-specific binding is determined in the presence of 10 μM MPEP. Binding reaction includes a final radioligand [^3H]-MPEP concentration of 4 nM and 12-25 ug membrane protein per well. Following a 60 minute incubation at room temperature, the reaction is terminated by the addition of ice cold buffer and rapid filtration through a GF/B filter presoaked for 30 minutes in 0.5% PEI. Compounds are initially tested in a single point assay to determine percent inhibition at 10 μM. Subsequently, Ki values are determined for compounds defined to be active.
% inhibition and Ki values generated by GraphPad Prism and Excel Fit. IC50 values are calculated using GraphPad by fitting to a 1 or 2 site-binding model. Ki values are calculated from the apparent IC50 values using the Cheng-Prussof equation:
(§1) where [L]=concentration of free radioligand and Kd=dissociation constant of radioligand for the receptor. TITLE: Identification of metabotropic glutamate receptor 5 antagonists using a stable, sensitive fluorescence-based screening system PURPOSE: The aim of the research presented here was to develop a robust functional assay to measure changes in intracellular calcium, with the goal of identifying potent mGluR5 antagonists.

[1] = target: T2, metabotropic glutamate receptor 5 (Rattus norvegicus, UniProt P31424); assay: FLIPR Calcium 3 fluorescence-based functional assay of intracellular calcium, mGluR5 antagonist activity; type: cell-based; conditions: inhibition of glutamate (EC90, ~50 uM) stimulated calcium levels, mGluR5 HEK-293 cells; read-out: mGluR5 FLIPR MP Antagonist DR IC50
T2 construct: expressed in transfected cells; host or cells: HEK-293
T2 sequence (P31424 21-1203): as above
From the text: as §1
The FLIPR Calcium 3 Assay Kit is designed to work with many cell types, both adherent and non-adherent. Optimal cell conditions for the FLIPR Calcium 3 Assay Kit require the creation of a confluent cell monolayer before placing the plates in FLIPR or FlexStation. In general, we start with 50,000 mGluR5 HEK-293 cells/well for a 96-well plate. For adherent cells, seeding cells overnight with a plating volume of 100 μL/well worked for 96-well plates.
Remove cell plates from the incubator. Remove the supernatant medium. Add 180 ul of Loading Buffer to each well (for 96-well plates). HBSS buffer component B) pipette 100 mL of 10× Hank's Balanced Salt Solution and 20 mL of 1M Hepes buffer
Incubate cell plates for 1 hour at 37° C. and then keep the plates at room temperature until used.
After incubation, transfer the plates directly to FLIPR and begin the calcium assay as described in the FLIPR system manual. For a signal test, a starting average count of ˜10,000 is recommended. Recommended experimental setup parameters are as follows. Faster addition speeds can lead to better mixing of compounds and lower signal variance across the plate.
Test or reference compound is added to the 96-well plate (manually). […] Relative Fluorescence Units (RFUs) are recorded over a given time period (stated above) depending on the platform system used.
For antagonists, results are expressed as % inhibition of glutamate stimulated Calcium levels. IC50 values were calculated by Prism GraphPad using a 4-parameter logistic equation. IC50 values are calculated using GraphPad by fitting to a 1 site-model.

Row | Ki (rat mGluR5 receptor) [nM] | IC50 [1] [nM] | Compound
1 | 27 | 4 | COc1ccc(C(=O)N2CCc3[nH]ncc3C2)cc1C#Cc1ccccn1 [Example 53, 5-{[4-methoxy-3-(pyridin-2-ylethynyl)phenyl]carbonyl}-4,5,6,7-tetrahydro-1H-pyrazolo[4,3-c]pyridine]
2 | 26 | 8 | COc1ccc(C(=O)N2Cc3cccnc3C2)cc1C#Cc1ccccn1 [Example 54, 6-{[4-methoxy-3-(pyridin-2-ylethynyl)phenyl]carbonyl}-6,7-dihydro-5H-pyrrolo[3,4-b]pyridine]
3 | 29 | 12 | COc1ccc(C(=O)N2CCOc3ccccc3C2)cc1C#Cc1ccccn1 [Example 55, 4-{[4-methoxy-3-(pyridin-2-ylethynyl)phenyl]carbonyl}-2,3,4,5-tetrahydro-1,4-benzoxazepine]
4 | 15 | 17 | COc1ccc(C(=O)N2CCc3ccccc3CC2)cc1C#Cc1ccccn1 [Example 57, 3-{[4-methoxy-3-(pyridin-2-ylethynyl)phenyl]carbonyl}-2,3,4,5-tetrahydro-1H-3-benzazepine]
5 | 57 | 18 | COc1ccc(C(=O)N2CCc3[nH]cnc3C2)cc1C#Cc1ccccn1 [Example 58, 5-{[4-methoxy-3-(pyridin-2-ylethynyl)phenyl]carbonyl}-4,5,6,7-tetrahydro-1H-imidazo[4,5-c]pyridine]
6 | 42 | 29 | COc1ccc(C(=O)N2CCCc3ccccc3C2)cc1C#Cc1ccccn1 [Example 59, 2-{[4-methoxy-3-(pyridin-2-ylethynyl)phenyl]carbonyl}-2,3,4,5-tetrahydro-1H-2-benzazepine]
7 | 1 | 6 | O=C(c1ccc(Cl)c(C#Cc2ccccn2)c1)N1Cc2ccccc2C1 [Example 60, 2-[4-Chloro-3-(pyridin-2-ylethynyl)benzoyl]isoindoline]
8 | 0.4 | 13 | O=C(c1ccc(Cl)c(C#Cc2ccccn2)c1)N1CCc2ccccc2C1 [Example 61, 2-[4-Chloro-3-(pyridin-2-ylethynyl)benzoyl]-1,2,3,4-tetrahydroisoquinoline]
9 | 5 | 9 | O=C(c1ccc(Cl)c(C#Cc2ccccn2)c1)N1CCc2cccnc2C1 [Example 62, 7-{[4-chloro-3-(pyridin-2-ylethynyl)phenyl]carbonyl}-5,6,7,8-tetrahydro-1,7-naphthyridine]
10 | 0.2 | 14 | O=C(c1ccc(Cl)c(C#Cc2ccccn2)c1)N1CCc2c(F)ccc(F)c2C1 [Example 63, 2-{[4-chloro-3-(pyridin-2-ylethynyl)phenyl]carbonyl}-5,8-difluoro-1,2,3,4-tetrahydroisoquinoline]
11 | 0.4 | 16 | O=C(c1ccc(Cl)c(C#Cc2ccccn2)c1)N1CCc2c(F)cccc2C1 [Example 64, 2-{[4-chloro-3-(pyridin-2-ylethynyl)phenyl]carbonyl}-5-fluoro-1,2,3,4-tetrahydroisoquinoline]
12 | 3 | 18 | O=C(c1ccc(Cl)c(C#Cc2ccccn2)c1)N1Cc2cccnc2C1 [Example 65, 6-{[4-chloro-3-(pyridin-2-ylethynyl)phenyl]carbonyl}-6,7-dihydro-5H-pyrrolo[3,4-b]pyridine]
13 | 4 | 11 | O=C(c1ccc(Cl)c(C#Cc2ccccn2)c1)N1CCc2[nH]ncc2C1 [Example 66, 5-{[4-chloro-3-(pyridin-2-ylethynyl)phenyl]carbonyl}-4,5,6,7-tetrahydro-1H-pyrazolo[4,3-c]pyridine]
14 | 16 | 27 | O=C(c1ccc(Cl)c(C#Cc2ccccn2)c1)N1CCc2[nH]cnc2C1 [Example 67, 5-{[4-chloro-3-(pyridin-2-ylethynyl)phenyl]carbonyl}-4,5,6,7-tetrahydro-1H-imidazo[4,5-c]pyridine]
15 | 4 | 26 | O=C(c1ccc(Cl)c(C#Cc2ccccn2)c1)N1CCc2ncccc2C1 [Example 68, 6-{[4-chloro-3-(pyridin-2-ylethynyl)phenyl]carbonyl}-5,6,7,8-tetrahydro-1,6-naphthyridine]
16 | 0.1 | 134 | O=C(c1ccc(Cl)c(C#Cc2ccccn2)c1)N1CCc2c(Cl)cccc2C1 [Example 69, 5-chloro-2-{[4-chloro-3-(pyridin-2-ylethynyl)phenyl]carbonyl}-1,2,3,4-tetrahydroisoquinoline]
17 | 0.4 | 37 | O=C(c1ccc(Cl)c(C#Cc2ccccn2)c1)N1CCc2ccc(F)cc2C1 [Example 70, 2-{[4-chloro-3-(pyridin-2-ylethynyl)phenyl]carbonyl}-7-fluoro-1,2,3,4-tetrahydroisoquinoline]
18 | 5 | 67 | O=C(c1ccc(F)c(C#Cc2ccccn2)c1)N1CCc2ccccc2C1 [Example 71, 2-[4-Fluoro-3-(pyridin-2-ylethynyl)benzoyl]-1,2,3,4-tetrahydroisoquinoline]
19 | 2 | 29 | O=C(c1ccc(F)c(C#Cc2ccccn2)c1)N1CCc2ccc(Cl)cc2C1 [Example 72, 7-chloro-2-[4-fluoro-3-(pyridin-2-ylethynyl)benzoyl]-1,2,3,4-tetrahydroisoquinoline]
20 | 1 | 40 | O=C(c1ccc(F)c(C#Cc2ccccn2)c1)N1CCc2c(Cl)cccc2C1 [Example 73, 5-chloro-2-[4-fluoro-3-(pyridin-2-ylethynyl)benzoyl]-1,2,3,4-tetrahydroisoquinoline]
21 | 11 | 62 | O=C(c1ccc(F)c(C#Cc2ccccn2)c1)N1Cc2ccccc2C1 [Example 74, 2-[4-fluoro-3-(pyridin-2-ylethynyl)benzoyl]isoindoline]
22 | 3 | 11 | CCOc1ccc(C(=O)N2CCc3ccccc3C2)cc1C#Cc1ccccn1 [Example 75, 2-[4-Ethoxy-3-(pyridin-2-ylethynyl)benzoyl]-1,2,3,4-tetrahydroisoquinoline]
23 | 1 | 42 | CCOc1ccc(C(=O)N2CCc3ccc(Cl)cc3C2)cc1C#Cc1ccccn1 [Example 76, 7-chloro-2-[4-ethoxy-3-(pyridin-2-ylethynyl)benzoyl]-1,2,3,4-tetrahydroisoquinoline]
24 | 1 | 41 | CCOc1ccc(C(=O)N2CCc3c(Cl)cccc3C2)cc1C#Cc1ccccn1 [Example 77, 5-chloro-2-[4-ethoxy-3-(pyridin-2-ylethynyl)benzoyl]-1,2,3,4-tetrahydroisoquinoline]
25 | 5 | 12 | CCOc1ccc(C(=O)N2Cc3ccccc3C2)cc1C#Cc1ccccn1 [Example 78, 2-[4-ethoxy-3-(pyridin-2-ylethynyl)benzoyl]isoindoline]
26 | 23 | 34 | O=C(c1ccc(OCC2CC2)c(C#Cc2ccccn2)c1)N1CCc2ccccc2C1 [Example 79, 2-{[4-(Cyclopropylmethoxy)-3-(pyridin-2-ylethynyl)phenyl]carbonyl}-1,2,3,4-tetrahydroisoquinoline]
27 | 1 | 26 | Cc1ccc(C(=O)N2Cc3ccccc3C2)cc1C#Cc1ccccn1 [Example 81, 2-[4-Methyl-3-(pyridin-2-ylethynyl)benzoyl]isoindoline]
28 | 1 | 27 | Cc1ccc(C(=O)N2CCc3ccccc3C2)cc1C#Cc1ccccn1 [Example 82, 2-[4-Methyl-3-(pyridin-2-ylethynyl)benzoyl]-1,2,3,4-tetrahydroisoquinoline]
29 | 0.3 | 30 | Cc1ccc(C(=O)N2CCc3ccc(Cl)cc3C2)cc1C#Cc1ccccn1 [Example 83, 7-chloro-2-[4-methyl-3-(pyridin-2-ylethynyl)benzoyl]-1,2,3,4-tetrahydroisoquinoline]
